Nine molecules from the NIST ThermoML archive (doi:10.1021/acs.jced.5b00882) can be followed below.

The conditions of data set [1]: for mass density: 298.15 K, 101.33 kPa, Liquid, Pycnometric method.
Data set [2] is described as follows: Molar enthalpy of transition or fusion. Conditions: Crystal; DSC.

Numbers after ± are expanded uncertainties.

Regarding `CNC(=O)NC` [1,3-dimethylurea], in data set [1] (Crystal, DSC), the Triple point temperature is listed as 376.35 ± 0.93 K. For the same molecule, the “Molar enthalpy of transition or fusion” value in data set [2] is 12.8 ± 0.39 kJ/mol. With `CCCCO` [butan-1-ol], the mass density in data set [1] came to 806 ± 1.5 kg/m3. For `CCO` [ethanol], in data set [1], the mass density came out at 785.3 ± 1.5 kg/m3.

As to `CCCCCCCO` [heptan-1-ol], in data set [1], the mass density is reported as 819.2 ± 1.5 kg/m3. Turning to `CCCCCCO` [hexan-1-ol], in data set [1], the mass density stood at 815.7 ± 1.5 kg/m3.

`CO` [methanol]: in data set [1], the mass density is 786.6 ± 0.6 kg/m3. On the same count and under the same terms, with `CCCCCCCCO` [octan-1-ol] the figure was 821.6 ± 1.5 kg/m3. In the case of `CCCCCO` [pentan-1-ol], the mass density in data set [1] was determined as 811.4 ± 1.5 kg/m3. For `CCCO` [propan-1-ol], the mass density in data set [1] stood at 799.7 ± 1.5 kg/m3.
